Source: US6737383B1, “Herbicidal oxadiazolidines” (priority 1999, dated 2004)

Columns and labels:
pigweed = test: Test B pre/postemergence pigweed; type: in vivo, Amaranthus retroflexus
In short: (§1)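 Response is a visual 0-to-10 score relative to untreated plants, where 0 means no effect and 10 means complete control, taken twelve to sixteen days after application. Treatments went onto soil at planting and onto foliage of 1- to 4-leaf plants, using a surfactant-containing non-phytotoxic solvent.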

sugar beet = test: Test B pre/postemergence sugar beet; type: in vivo, Beta vulgaris
In short: as §1

purple nutsedge = test: Test B pre/postemergence purple nutsedge; type: in vivo, Cyperus rotundus
In short: as §1

rice = test: Test B flood test rice; type: in vivo, Oryza sativa; conditions: for Plant response rating, Rice (0 to 10 scale, 0 is no effect, 10 is complete control) / Rice plant response rating (0 to 10 scale, 0 is no effect, 10 is complete control): visual evaluation after twelve to sixteen days; for Rice plant response rating (0 to 10 scale, 0 is no effect, 10 is complete control): Rate 125 g/ha, under heading Pre-emergence
In short: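 Flood test on plants grown to the 2-leaf stage; treated plants kept in greenhouse twelve to sixteen days, then visually rated against controls on a 0 (no effect) to 10 (complete control) scale.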

[1] = Postemergence, Rate 125 g/ha, scale 0 to 10, 0 is no effect, 10 is complete control
[2] = Postemergence, Rate 250 g/ha, scale 0 to 10, 0 is no effect, 10 is complete control
[3] = Preemergence, Rate 62 g/ha, scale 0 to 10 (0 no effect, 10 complete control)
[4] = Preemergence, Rate 250 g/ha, scale of 0 to 10 where 0 is no effect and 10 is complete control
[5] = Preemergence, Rate 500 g/ha, scale of 0 to 10 where 0 is no effect and 10 is complete control
[6] = Rate 62 g/ha, Postemergence, scale of 0 to 10 where 0 is no effect and 10 is complete control
[7] = Rate 500 g/ha, Postemergence, scale 0 to 10, 0 no effect, 10 complete control
[8] = Rate 62 g/ha, flood test species, Pre-emergence
[9] = Rate 250 g/ha, Pre-emergence, flood-test species, scale 0 to 10, 0 is no effect, 10 is complete control
[10] = Rate 500 g/ha, Pre-emergence, flood test species, scale 0 to 10 (0 no effect, 10 complete control)
[11] = Postemergence, Rate 500 g/ha, scale of 0 to 10 where 0 is no effect and 10 is complete control
[12] = Preemergence, Rate 125 g/ha, scale of 0 to 10 where 0 is no effect and 10 is complete control
[13] = Preemergence, Rate 250 g/ha, scale 0 to 10, 0 is no effect, 10 is complete control
[14] = Preemergence, Rate 500 g/ha, scale 0 to 10, 0 is no effect, 10 is complete control

SMILES	Plant response rating, Redroot pigweed (pigweed; [2])	Plant response rating, Redroot pigweed (pigweed; [3])	Redroot pigweed plant response rating (pigweed; [6])	Plant response rating, Sugarbeets (sugar beet; [2])	Plant response rating, Sugarbeets (sugar beet; [3])	Sugarbeets plant response rating (sugar beet; [6])	Plant response rating, Nutsedge (purple nutsedge; [2])	Plant response rating, Nutsedge (purple nutsedge; [3])	Nutsedge plant response rating (purple nutsedge; [6])	Plant response rating, Rice (0 to 10 scale, 0 is no effect, 10 is complete control) (rice; [8])	Rice plant response rating (0 to 10 scale, 0 is no effect, 10 is complete control) (rice; flood test species)	Rice plant response rating (rice; [9])	Rice plant response rating (rice; [10])	Redroot pigweed plant response rating (pigweed; [11])	Plant response rating, Redroot pigweed (pigweed; [12])	Sugarbeets plant response rating (sugar beet; [11])	Plant response rating, Sugarbeets (sugar beet; [12])	Plant response rating, Nutsedge (purple nutsedge; [12])	Redroot pigweed plant response rating (pigweed; [13])	Redroot pigweed plant response rating (pigweed; [14])	further results
CC(C)N(C(=O)n1oc(=O)n(N2CCOCC2)c1=O)c1ccc(F)cc1F [Compound 384]	0	0	0	0	0	0	0	0	0	0	0	0	0								Plant response rating, Redroot pigweed (pigweed; [1]): 0; Redroot pigweed plant response rating (0 to 10 scale) (pigweed; Preemergence, Rate 125 g/ha): 0; Redroot pigweed plant response rating (pigweed; [4]): 0; Redroot pigweed plant response rating (pigweed; [5]): 0; Plant response rating, Redroot pigweed (pigweed; [7]): 0; Plant response rating, Sugarbeets (sugar beet; [1]): 0; Sugarbeets plant response rating (0 to 10 scale) (sugar beet; Preemergence, Rate 125 g/ha): 0; Sugarbeets plant response rating (sugar beet; [4]): 0; Sugarbeets plant response rating (sugar beet; [5]): 2; Plant response rating, Sugarbeets (sugar beet; [7]): 0; Plant response rating, Nutsedge (purple nutsedge; [1]): 0; Nutsedge plant response rating (0 to 10 scale) (purple nutsedge; Preemergence, Rate 125 g/ha): 0; Nutsedge plant response rating (purple nutsedge; [4]): 0; Nutsedge plant response rating (purple nutsedge; [5]): 0; Plant response rating, Nutsedge (purple nutsedge; [7]): 0
CC(C)N(C(=O)n1oc(=O)n(C(CF)CF)c1=O)c1ccc(F)cc1 [Compound 390]	9	8	2	5	5	0	3	0	0	1	1	1	4	9	9	7	7	0			Redroot pigweed plant response rating (pigweed; [4]): 10; Redroot pigweed plant response rating (pigweed; [5]): 10; Sugarbeets plant response rating (sugar beet; [4]): 8; Sugarbeets plant response rating (sugar beet; [5]): 8; Nutsedge plant response rating (purple nutsedge; [4]): 0; Nutsedge plant response rating (purple nutsedge; [5]): 2
CC(C)N(C(=O)n1oc(=O)n(CCC(F)(F)F)c1=O)c1ccc(F)cc1 [Compound 397]	4	8	0	0	0	0	0	0	0					6	8	0	4	0	10	10	Sugarbeets plant response rating (sugar beet; [13]): 7; Sugarbeets plant response rating (sugar beet; [14]): 9; Nutsedge plant response rating (purple nutsedge; [11]): 0; Nutsedge plant response rating (purple nutsedge; [13]): 0; Nutsedge plant response rating (purple nutsedge; [14]): 0; Rice plant response rating (rice; Postemergence section (flood test species), Rate 500 g/ha, scale of 0 to 10 where 0 is no effect and 10 is complete control): 0; Rice plant response rating (rice; Rate 62 g/ha, Postemergence (flood test species), scale of 0 to 10 where 0 is no effect and 10 is complete control): 0; Plant response rating, Rice (rice; flood test species, listed under Postemergence, Rate 250 g/ha, scale 0 to 10, 0 is no effect, 10 is complete control): 0
Cc1nc(Cl)sc1C(C)n1c(=O)on(C(=O)N(c2ccc(F)cc2)C(C)C)c1=O (stereo not drawn) [Compound 401]	1	0	0	0	0	0	0	0	0	0	0	0	0	2	0	0	0	0	0	0	Sugarbeets plant response rating (sugar beet; [13]): 0; Sugarbeets plant response rating (sugar beet; [14]): 0; Nutsedge plant response rating (purple nutsedge; [11]): 0; Nutsedge plant response rating (purple nutsedge; [13]): 0; Nutsedge plant response rating (purple nutsedge; [14]): 0
CC1CC1Cn1c(=O)on(C(=O)N(c2ccc(F)cc2)C(C)C)c1=O (stereo not drawn) [Compound 402]	5	0	2	2	0	1	0	0	0	1	1	2	2	7	2	2	0	0	4	10	Sugarbeets plant response rating (sugar beet; [13]): 3; Sugarbeets plant response rating (sugar beet; [14]): 8; Nutsedge plant response rating (purple nutsedge; [11]): 0; Nutsedge plant response rating (purple nutsedge; [13]): 0; Nutsedge plant response rating (purple nutsedge; [14]): 0
